Experimental data: ChEMBL document CHEMBL4613242, “Thiopeptide Defense by an Ant's Bacterial Symbiont” (2020)

Assays:
Format in all cases: functional
Bacillus subtilis = assay: Antimicrobial activity against Bacillus subtilis 3610 at 0.1 ug measured at 24 hrs by agar diffusion assay; conditions: Bacillus subtilis, 3610, 24 h; read-out: DIZ
Pseudonocardia [1] = assay: Antimicrobial activity against Pseudonocardia 17SE-8 at 0.1 ug measured on day 5 by agar diffusion assay; conditions: 17SE-8, 120 h, read-out: DIZ
Candida albicans = assay: Antimicrobial activity against Candida albicans SC5314 at 0.1 ug measured at 24 hrs by agar diffusion assay; conditions: SC5314, 24 h, read-out: DIZ
Escovopsis sp. = assay: Antimicrobial activity against Escovopsis sp. at 0.1 ug measured on day 5 by agar diffusion assay; conditions: 120 h, read-out: DIZ
Pseudonocardia [2] = assay: Antimicrobial activity against Pseudonocardia 17SE-9 at 0.1 ug measured on day 5 by agar diffusion assay; conditions: 17SE-9, 120 h, read-out: DIZ
Pseudonocardia [3] = assay: Antimicrobial activity against Pseudonocardia 17SE-10 at 0.1 ug measured on day 5 by agar diffusion assay; conditions: 17SE-10, 120 h, read-out: DIZ
Pseudonocardia [4] = assay: Antimicrobial activity against Pseudonocardia 17SM-1 at 0.1 ug measured on day 5 by agar diffusion assay; conditions: 17SM-1, 120 h, read-out: DIZ
Pseudonocardia [5] = assay: Antimicrobial activity against Pseudonocardia PLR1 at 0.1 ug measured on day 5 by agar diffusion assay; conditions: PLR1, 120 h, read-out: DIZ
Pseudonocardia [6] = assay: Antimicrobial activity against Pseudonocardia 18PO-3 at 0.1 ug measured on day 5 by agar diffusion assay; conditions: 18PO-3, 120 h, read-out: DIZ
Trichoderma harzianum = assay: Antimicrobial activity against Trichoderma harzianum T22 at 0.1 ug measured on day 5 by agar diffusion assay; conditions: T22, 120 h, read-out: DIZ
Pseudonocardia [7] = assay: Antimicrobial activity against Pseudonocardia 18AZ-4 at 0.1 ug measured on day 5 by agar diffusion assay; conditions: 18AZ-4, 120 h, read-out: DIZ

C=C(NC(=O)C(=C)NC(=O)c1csc(-c2ccc3c(n2)-c2csc(n2)-c2csc(n2)[C@@H]2C(C)C[C@H](O)N2C(=O)[C@H](Cc2ccc(O)cc2)NC(=O)C2CSC(=N2)[C@H](Cc2ccccc2)NC(=O)c2csc(n2)[C@H](CC(N)=O)NC(=O)c2nc-3oc2C)n1)C(=O)O (stereo partly specified)
zone of inhibition at 0.1 µg/disc (Bacillus subtilis): 9.7 mm
zone of inhibition at 0.1 µg/disc (Pseudonocardia [1]): 18.7 mm
zone of inhibition at 0.1 µg/disc (Candida albicans): 0 mm
zone of inhibition at 0.1 µg/disc (Escovopsis sp.): 0 mm
zone of inhibition at 0.1 µg/disc (Pseudonocardia [2]): 0 mm
zone of inhibition at 0.1 µg/disc (Pseudonocardia [3]): 13.7 mm
zone of inhibition at 0.1 µg/disc (Pseudonocardia [4]): 28.3 mm
zone of inhibition at 0.1 µg/disc (Pseudonocardia [5]): 18 mm
zone of inhibition at 0.1 µg/disc (Pseudonocardia [6]): 20 mm
zone of inhibition at 0.1 µg/disc (Trichoderma harzianum): 0 mm
zone of inhibition at 0.1 µg/disc (Pseudonocardia [7]): 23 mm
